# Measured values from patent US20230242496A1, “SOX11 INHIBITORS FOR TREATING MANTLE CELL LYMPHOMA” (Icahn School of Medicine At Mount Sinai, priority 2020, published 2023).
# Assays:
# [1] = tested on: Jeko-1 (SOX11+); test: Cell viability assay (CellTiter-Blue resazurin reduction); assay type: cell-based; details: JeKo-1 cells; for viability at 20 µM: 20 μM compound, normalized to 0.2% DMSO; for IC50: 0-40 μM
# Protocol: Cell viability was determined by a fluorometric resazurin reduction method (CellTiter-Blue; Promega, Madison, Wis.) following the manufacturer's instructions. […] Cells were incubated for 72 hours. After incubation, 20 μl CellTiter-Blue Cell was added to each well and incubated for another 2 hours. […] The number of viable cells in each treated well was calculated, based on the linear least squares regression of the standard curve (OD vs. cell concentration). The viability of cells treated with compounds was normalized to the viability of cells treated with 0.2% Dimethyl sulfoxide (DMSO). Cell counts were confirmed with Trypan Blue Exclusion Assay on the Countess automated cell counter (Invitrogen) according to the manufacturer's specifications. The average and mean standard deviation were calculated from three separate experiments. IC50 values were calculated using the GraphPad Prism (version 4.00) based on a sigmoidal dose-response equation.
# [2] = target: T1, (His)6-SOX11-DBD protein (Homo sapiens, UniProt P35716); test: Surface Plasmon Resonance (SPR) assay; assay type: binding; details: immobilized recombinant (His)6-SOX11-DBD, 25° C., compounds 5-40 μM, mean of three experiments
# T1 construct: Recombinant (His)6-SOX11-DBD protein was immobilized
# T1 sequence (P35716 49-117 limits assumed): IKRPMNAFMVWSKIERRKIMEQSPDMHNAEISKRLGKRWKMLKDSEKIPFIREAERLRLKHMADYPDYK
# Protocol: Surface Plasmon Resonance (SPR) Assay
# Recombinant (His)6-SOX11-DBD protein was immobilized at a flow rate of 10 μl/min for 180 seconds to the right channel of a gold-coated SCR NiHC200M sensor chip (XanTec bioanalytics) placed in a Reichert 2SPR instrument (Reichert Technologies). The left channel, without immobilized protein, was used as a reference. […] Compounds flowed sequentially from the left to the right channel over the prepared sensor chip surface. 120 seconds association phase with each compound concentration was followed by 300 seconds dissociation phase with the assay buffer alone. The ka, kd, and KD values were determined from the sensograms for at least 3 concentrations of each compound by curve fitting the data using Reichert's TraceDrawer software. The mean KD value for each compound was calculated from three separate experiments.
SMILES,"viability at 20 µM ([1]; Homo sapiens, JeKo-1, 72 h)",Kd [2],"IC50 ([1]; Homo sapiens, JeKo-1, 72 h)",IC50 ([1]; 72 hours)
O=C(Nc1ccc(CNc2ccccc2)cc1)c1ccc2c(c1)CCCS2,51.9%,13.5 µM,,
CC1Sc2ccc(C(=O)Nc3ccc(Cl)c(S(=O)(=O)N(C)C(C)C)c3)cc2NC1=O (stereo not drawn),12%,13.4 µM,,
Cc1ccc(NC(=O)c2ccc3c(c2)N(C)C(=O)CS3)cc1S(=O)(=O)N1CCCCC1,3.42%,8.89 µM,,
CC1Sc2ccc(C(=O)Nc3cccc(S(=O)(=O)Nc4cccc(F)c4)c3)cc2NC1=O (stereo not drawn),13.1%,0.629 µM,10 µM,
O=C(Nc1ccc(S(=O)(=O)Nc2ccccc2)cc1)c1ccc2cccnc2c1,94.2%,2.01 µM,> 20 µM,
c1ccc(COc2ccc(CNc3ccc4cnccc4c3)cc2)cc1,1.2%,33.7 µM,,
CN1C(=O)COc2ccc(C(=O)Nc3ccc(S(=O)(=O)N4CCCCC4)cc3)cc21,90.6%,5.35 µM,> 20 µM,
CC1Sc2ccc(C(=O)Nc3ccc(CNc4cccc(S(=O)(=O)F)c4)cc3)cc2NC1=O (stereo not drawn),,1.65 µM,,16 µM
O=C1COc2ccc(C(=O)Nc3ccc(S(=O)(=O)Nc4ccccc4)cc3)cc2N1,61.1%,17.9 µM,> 20 µM,
CC1Sc2ccc(C(=O)Nc3cccc(S(=O)(=O)NC4CC4)c3)cc2NC1=O (stereo not drawn),11.9%,96.9 µM,4 µM,
CC1Sc2ccc(C(=O)Nc3ccc(S(C)(=O)=O)cc3)cc2NC1=O (stereo not drawn),30.6%,7.13 µM,15 µM,
O=C(Nc1ccc(S(=O)(=O)Nc2ccccc2)cc1)c1ccc2cnccc2c1,6.45%,134 µM,15 µM,
CC1Sc2ccc(C(=O)Nc3ccc(S(=O)(=O)Nc4ccncc4)cc3)cc2NC1=O (stereo not drawn),103%,30.9 µM,> 20 µM,
CC1Sc2ccc(C(=O)Nc3ccc(S(=O)(=O)N(C)C)cc3)cc2NC1=O (stereo not drawn),19.6%,15.4 µM,15 µM,
Cc1ccc(NS(=O)(=O)c2cccc(NC(=O)c3ccc4c(c3)NC(=O)C(C)S4)c2)cc1 (stereo not drawn),2.16%,6.08 µM,7 µM,
Cc1ccccc1COc1cccc(NC(=O)c2ccc3c(c2)NC(=O)C(C)S3)c1 (stereo not drawn),110%,5.41 µM,,
Cc1cccc(NS(=O)(=O)c2cccc(NC(=O)c3ccc4c(c3)NC(=O)C(C)S4)c2)c1 (stereo not drawn),3.73%,2.47 µM,10 µM,
CC1Sc2ccc(C(=O)Nc3cccc(OCc4ccccc4)c3)cc2NC1=O (stereo not drawn),107%,13.7 µM,,
CC1Sc2ccc(C(=O)Nc3cccc(S(=O)(=O)N(C)C(C)C)c3)cc2NC1=O (stereo not drawn),9.64%,65.9 µM,6 µM,
CC1Sc2ccc(C(=O)Nc3ccc(S(=O)(=O)N4CCOCC4)cc3)cc2NC1=O (stereo not drawn),18.9%,137 µM,11 µM,
CC1Sc2ccc(C(=O)Nc3ccc(C(=O)Nc4ccccc4)cc3)cc2NC1=O (stereo not drawn),97.5%,13.7 µM,> 20 µM,
CC1Sc2ccc(C(=O)Nc3ccc(S(=O)(=O)Nc4ccccc4)s3)cc2NC1=O (stereo not drawn),57.4%,6.63 µM,> 20 µM,
CCC1Sc2ccc(C(=O)Nc3ccc(S(=O)(=O)Nc4ccccc4)cc3)cc2NC1=O (stereo not drawn),36.7%,1.43 µM,12 µM,
CC1Sc2ccc(C(=O)N(c3ccccc3)S(=O)(=O)c3ccc(N)cc3)cc2NC1=O (stereo not drawn),91.2%,7.75 µM,> 20 µM,
c1ccc(COc2ccc(CNc3ccc4cncnc4c3)cc2)cc1,1.09%,5.2 µM,,
CC1Sc2ccc(C(=O)Nc3ccc(CN4CCCC4)cc3)cc2NC1=O (stereo not drawn),104%,71.5 µM,,
CC1Sc2ccc(C(=O)Nc3cccc(CNc4cccc(OS(=O)(=O)F)c4)c3)cc2NC1=O (stereo not drawn),,11.2 µM,,
O=C(Nc1ccc(S(=O)(=O)Nc2ccccc2)cc1)c1ccc2nncn2c1,,367 µM,,
FC(F)(F)c1cc(OCc2ccccc2)ccc1CNc1ccc2cncnc2c1,,5.28 µM,,
